Key:
[1] = tested on: Zymoseptoria tritici strain Zt 61; test: In planta preventive efficacy on wheat cv. Alixan against Zymoseptoria tritici strain Zt 61; type: in vivo; details: for Disease Severity Intensity: % of length of 2nd leaf blade, preventive 24 h; for AUDPC: control 1194.9
Summary of the method: (§1)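 BBCH 12 wheat plants sprayed preventively, inoculated 24 h later with calibrated pycnospore suspension; 3 pots of 6 plants per condition, 20/17 °C, 16 h light. Necrosis length on second leaf scored at 15, 21 and 28 dpi; efficacy from trapezoidal AUDPC as % of untreated control.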

[2] = tested on: Zymoseptoria tritici strain Zt 99; test: In planta preventive efficacy on wheat cv. Alixan against Zymoseptoria tritici strain Zt 99; type: in vivo; details: for Disease Severity Intensity: % of length of 2nd leaf blade, preventive 24 h; for AUDPC: control 1352.9
Summary of the method: as §1

[3] = tested on: Zymoseptoria tritici strain Zt 19-52; test: In planta preventive efficacy on wheat cv. Alixan against Zymoseptoria tritici strain Zt 19-52; type: in vivo; details: % of length of 2nd leaf blade, preventive 24 h
[4] = tested on: Zymoseptoria tritici strain Zt 38-02; test: In planta preventive efficacy on wheat cv. Alixan against Zymoseptoria tritici strain Zt 38-02; type: in vivo; details: for Disease Severity Intensity: % of length of 2nd leaf blade, preventive 24 h; for AUDPC: control 1261.4
Summary of the method: as §1

[5] = tested on: Zymoseptoria tritici strain Zt 20; test: In planta preventive efficacy on wheat cv. Alixan against Zymoseptoria tritici strain Zt 20; type: in vivo; details: % of length of 2nd leaf blade, preventive 24 h
Summary of the method: as §1

[6] = tested on: Zymoseptoria tritici strain Zt StA; test: In planta preventive efficacy on wheat cv. Alixan against Zymoseptoria tritici strain Zt StA (control strain, sensitive); type: in vivo; details: for Disease Severity Intensity: % of length of 2nd leaf blade, preventive 24 h; for AUDPC: control 781.6
Summary of the method: as §1

Z. tritici strains = test: In planta susceptibility of all Z. tritici strains pathogenic on wheat cv. ALIXAN (conclusions); type: in vivo, Zymoseptoria tritici
Experimental: Winter wheat plants cv. Alixan (Limagrain) at the BBCH 12 growth stage were treated preventively with sterile distilled water (control), ADF-16, penthiopyrad, metconazole or tebuconazole at the rates described in Table 2 with a hand sprayer at 2 bars.
After treatment, wheat plants were left to dry at room temperature for 1 hour and then placed in a climatic chamber: temperature of 24 °C day/18 °C night-photoperiod of 16 h light/8 h dark and a relative humidity of 65%.
Untreated or treated whole wheat plants were inoculated 24-hours post-treatment with a calibrated pycnospore suspension of Z. tritici strains Zt StA, Zt 61, Zt 99, Zt 20, Zt 19-52, and Zt 38-02. Three replicates (pots) of 6 wheat plants each were used for each condition tested. […]
Disease assessments were carried out at 15 days post inoculation (dpi), 21 dpi and 28 dpi by measuring the length of the necrosis on the second leaf blade. The intensity of infection was then determined as a percentage of the total length of 2nd leaf blade.
The fungicide efficacies were determined from the Area Under the Disease Progress Curve (AUDPC) values and expressed as a percentage of the untreated control.
The AUDPC is a quantitative measure of disease intensity over time. […] The AUDPC is determined with the following formula by adding all of the trapezoids: […]

[7] = 15 dpi, rate N (g a.i./ha): ADF-16 100, penthiopyrad 200, metconazole 90, tebuconazole 250, control also no disease
[8] = 15 dpi, rate N/2.5 (g a.i./ha): ADF-16 40, penthiopyrad 80, metconazole 36, tebuconazole 100, control also no disease
[9] = rate N (g a.i./ha): ADF-16 100, penthiopyrad 200, metconazole 90, tebuconazole 250
[10] = rate N/2.5 (g a.i./ha): ADF-16 40, penthiopyrad 80, metconazole 36, tebuconazole 100

**Q.** For `Cc1ccc(S(=O)(=O)n2cc(F)c(=N)n(C)c2=O)cc1` [ADF-16, 5-fluoro-4-imino-3-methyl-1-tosyl-3,4-dihydropyrimidin-2 (1H)-one], which “Disease Severity Intensity” value [1, 7] is on record?
**A.** No disease

**Q.** What about the “Disease Severity Intensity” value [1, 8] of the same compound?
**A.** No disease

**Q.** What about the “Disease Severity Intensity” value ([1]; 21 dpi, rate N (g a.i./ha): ADF-16 100, penthiopyrad 200, metconazole 90, tebuconazole 250, control 63.3) of the same compound?
**A.** 0.0 +/− 0.0d %

**Q.** And the “Disease Severity Intensity” value ([1]; 21 dpi, rate N/2.5 (g a.i./ha): ADF-16 40, penthiopyrad 80, metconazole 36, tebuconazole 100, control 63.3)?
**A.** 3.2 +/− 1.1d %

**Q.** What about the “Disease Severity Intensity” value ([1]; 28 dpi, rate N (g a.i./ha): ADF-16 100, penthiopyrad 200, metconazole 90, tebuconazole 250, control 88.1) of the same compound?
**A.** 1.5 +/− 0.3g %

**Q.** What about the “Disease Severity Intensity” value ([1]; 28 dpi, rate N/2.5 (g a.i./ha): ADF-16 40, penthiopyrad 80, metconazole 36, tebuconazole 100, control 88.1) of the same compound?
**A.** 14.8 +/− 4.0e %

**Q.** And the “Efficacy (from AUDPC, percentage of the untreated control)” value [1, 9]?
**A.** 99.6%

**Q.** And the AUDPC [1, 9]?
**A.** 5.4 ± 1.2 days

**Q.** And the “Efficacy (from AUDPC, percentage of the untreated control)” value [1, 10]?
**A.** 91.9%

**Q.** And the AUDPC [1, 10]?
**A.** 97.2 ± 5.0 days

**Q.** What about the “Disease Severity Intensity” value ([2]; 15 dpi, rate N (g a.i./ha): ADF-16 100, penthiopyrad 200, metconazole 90, tebuconazole 250, control 47.9) of the same compound?
**A.** 0.0 +/− 0.0d %

**Q.** What about the “Disease Severity Intensity” value ([2]; 15 dpi, rate N/2.5 (g a.i./ha): ADF-16 40, penthiopyrad 80, metconazole 36, tebuconazole 100, control 47.9) of the same compound?
**A.** 0.0 +/− 0.0d %

**Q.** What about the “Disease Severity Intensity” value ([2]; 21 dpi, rate N (g a.i./ha): ADF-16 100, penthiopyrad 200, metconazole 90, tebuconazole 250, control 81.0) of the same compound?
**A.** 0.1 +/− 0.1f %

**Q.** What about the “Disease Severity Intensity” value ([2]; 21 dpi, rate N/2.5 (g a.i./ha): ADF-16 40, penthiopyrad 80, metconazole 36, tebuconazole 100, control 81.0) of the same compound?
**A.** 0.0 +/− 0.0f %

**Q.** And the “Disease Severity Intensity” value ([2]; 28 dpi, rate N (g a.i./ha): ADF-16 100, penthiopyrad 200, metconazole 90, tebuconazole 250, control 92.2)?
**A.** 0.1 +/− 0.1e %

**Q.** And the “Disease Severity Intensity” value ([2]; 28 dpi, rate N/2.5 (g a.i./ha): ADF-16 40, penthiopyrad 80, metconazole 36, tebuconazole 100, control 92.2)?
**A.** 1.7 +/− 0.8e %

**Q.** And the “Efficacy (from AUDPC, percentage of the untreated control)” value [2, 9]?
**A.** 99.9%

**Q.** What about the AUDPC [2, 9] of the same compound?
**A.** 1.2 ± 0.3 g

**Q.** What about the “Efficacy (from AUDPC, percentage of the untreated control)” value [2, 10] of the same compound?
**A.** 99.6%

**Q.** What about the AUDPC [2, 10] of the same compound?
**A.** 5.9 ± 0.4 g

**Q.** What about the “Disease Severity Intensity” value ([3]; 15 dpi, rate N (g a.i./ha): ADF-16 100, penthiopyrad 200, metconazole 90, tebuconazole 250, control 22.0) of the same compound?
**A.** 0.0 +/− 0.0b %

**Q.** And the “Disease Severity Intensity” value ([3]; 15 dpi, rate N/2.5 (g a.i./ha): ADF-16 40, penthiopyrad 80, metconazole 36, tebuconazole 100, control 22.0)?
**A.** 0.0 +/− 0.0b %

**Q.** And the “Disease Severity Intensity” value ([3]; 21 dpi, rate N (g a.i./ha): ADF-16 100, penthiopyrad 200, metconazole 90, tebuconazole 250, control 81.7)?
**A.** 0.4 +/− 0.4c %

**Q.** And the “Disease Severity Intensity” value ([3]; 21 dpi, rate N/2.5 (g a.i./ha): ADF-16 40, penthiopyrad 80, metconazole 36, tebuconazole 100, control 81.7)?
**A.** 0.3 +/− 0.2c %

**Q.** What about the “Disease Severity Intensity” value ([3]; 28 dpi, rate N (g a.i./ha): ADF-16 100, penthiopyrad 200, metconazole 90, tebuconazole 250, control 91.0) of the same compound?
**A.** 2.0 +/− 1.4ef %

**Q.** And the “Disease Severity Intensity” value ([3]; 28 dpi, rate N/2.5 (g a.i./ha): ADF-16 40, penthiopyrad 80, metconazole 36, tebuconazole 100, control 91.0)?
**A.** 4.4 +/− 1.7de %

**Q.** And the “Disease Severity Intensity” value ([4]; 15 dpi, rate N (g a.i./ha): ADF-16 100, penthiopyrad 200, metconazole 90, tebuconazole 250, control 36.0)?
**A.** 0.0 +/− 0.0b %

**Q.** And the “Disease Severity Intensity” value ([4]; 15 dpi, rate N/2.5 (g a.i./ha): ADF-16 40, penthiopyrad 80, metconazole 36, tebuconazole 100, control 36.0)?
**A.** 0.0 +/− 0.0b %

**Q.** What about the “Disease Severity Intensity” value ([4]; 21 dpi, rate N (g a.i./ha): ADF-16 100, penthiopyrad 200, metconazole 90, tebuconazole 250, control 84.3) of the same compound?
**A.** 0.0 +/− 0.0f^ %

**Q.** And the “Disease Severity Intensity” value ([4]; 21 dpi, rate N/2.5 (g a.i./ha): ADF-16 40, penthiopyrad 80, metconazole 36, tebuconazole 100, control 84.3)?
**A.** 0.0 +/− 0.0f^ %

**Q.** And the “Disease Severity Intensity” value ([4]; 28 dpi, rate N (g a.i./ha): ADF-16 100, penthiopyrad 200, metconazole 90, tebuconazole 250, control 95.7)?
**A.** 0.4 +/− 0.4e %

**Q.** What about the “Disease Severity Intensity” value ([4]; 28 dpi, rate N/2.5 (g a.i./ha): ADF-16 40, penthiopyrad 80, metconazole 36, tebuconazole 100, control 95.7) of the same compound?
**A.** 0.0 +/− 0.0e %

**Q.** What about the “Efficacy (from AUDPC, percentage of the untreated control)” value [4, 9] of the same compound?
**A.** 99.9%

**Q.** What about the AUDPC [4, 9] of the same compound?
**A.** 1.3 +/− 0.9e

**Q.** And the “Efficacy (from AUDPC, percentage of the untreated control)” value [4, 10]?
**A.** 100%

**Q.** What about the AUDPC [4, 10] of the same compound?
**A.** 0.0 +/− 0.0e

**Q.** And the “Disease Severity Intensity” value [5, 7]?
**A.** No disease

**Q.** What about the “Disease Severity Intensity” value [5, 8] of the same compound?
**A.** No disease

**Q.** And the “Disease Severity Intensity” value ([5]; 21 dpi, rate N (g a.i./ha): ADF-16 100, penthiopyrad 200, metconazole 90, tebuconazole 250, control 77.2)?
**A.** 0.0 +/− 0.0e %

**Q.** What about the “Disease Severity Intensity” value ([5]; 21 dpi, rate N/2.5 (g a.i./ha): ADF-16 40, penthiopyrad 80, metconazole 36, tebuconazole 100, control 77.2) of the same compound?
**A.** 0.0 +/− 0.0e %

**Q.** What about the “Disease Severity Intensity” value ([5]; 28 dpi, rate N (g a.i./ha): ADF-16 100, penthiopyrad 200, metconazole 90, tebuconazole 250, control 95.5) of the same compound?
**A.** 0.0 +/− 0.0g %

**Q.** And the “Disease Severity Intensity” value ([5]; 28 dpi, rate N/2.5 (g a.i./ha): ADF-16 40, penthiopyrad 80, metconazole 36, tebuconazole 100, control 95.5)?
**A.** 7.3 +/− 1.9f %

**Q.** What about the “Disease Severity Intensity” value [6, 7] of the same compound?
**A.** No disease

**Q.** What about the “Disease Severity Intensity” value [6, 8] of the same compound?
**A.** No disease

**Q.** And the “Disease Severity Intensity” value ([6]; 21 dpi, rate N (g a.i./ha): ADF-16 100, penthiopyrad 200, metconazole 90, tebuconazole 250, control 36.5)?
**A.** 0.0 +/− 0.0b %

**Q.** What about the “Disease Severity Intensity” value ([6]; 21 dpi, rate N/2.5 (g a.i./ha): ADF-16 40, penthiopyrad 80, metconazole 36, tebuconazole 100, control 36.5) of the same compound?
**A.** 0.0 +/− 0.0b %

**Q.** What about the “Disease Severity Intensity” value ([6]; 28 dpi, rate N (g a.i./ha): ADF-16 100, penthiopyrad 200, metconazole 90, tebuconazole 250, control 77.4) of the same compound?
**A.** 0.0 +/− 0.0b %

**Q.** What about the “Disease Severity Intensity” value ([6]; 28 dpi, rate N/2.5 (g a.i./ha): ADF-16 40, penthiopyrad 80, metconazole 36, tebuconazole 100, control 77.4) of the same compound?
**A.** 0.0 +/− 0.0b %

**Q.** What about the “Efficacy (from AUDPC, percentage of the untreated control)” value [6, 9] of the same compound?
**A.** 100%

**Q.** And the AUDPC [6, 9]?
**A.** 0.0 +/− 0.0b

**Q.** And the “Efficacy (from AUDPC, percentage of the untreated control)” value [6, 10]?
**A.** 100%

**Q.** And the AUDPC [6, 10]?
**A.** 0.0 +/− 0.0b

**Q.** What about the “control in planta of Z. tritici strains” value (Z. tritici strains; 8 strains pathogenic on wheat cv. ALIXAN, 2 doses tested (40 and 100 g a.i./ha)) of the same compound?
**A.** perfectly controlled

**Q.** And the effectiveness (Z. tritici strains; full dose of 100 g a.i./ha, across strains)?
**A.** more than 99%
